# Assay results published in patent publication US20050020630A1, “Cycloalkyl and heterocycloalkyl substituted benzothiophenes as therapeutic agents” (priority 2003, published 2005).
# pIC50: −log10 of the molar value.
# Target: T1, PI3Kγ (Homo sapiens, UniProt P48736)
# T1 construct: HA; made in house; host or cells: Spodoptera frugiperda (Sf9) cells, baculovirus co-infection
# Assay: PI3Kγ In Vitro Kinase Assay
# Format: biochemical
# Conditions: purified recombinant p101/p110 γ protein with G protein β1/γ2 subunits; 20 μM ATP, 25 μM PIP2; 20 minutes at room temperature; radioactive PIP3 readout
# Description: Spodtera frugiperda cells, grown in ESF921 media, were coinfected with baculovirus expressing a glu-tagged p101 and baculovirus expressing an HA-tagged p110γ, at a 3:1 ratio of p101 baculovirus to p110γ baculovirus. Sf9 cells were grown to 1×10^7 total cells/mL in 10 L bioreactors and harvested 48-72 hours post infection. Samples of infected cells were then tested for expression of p101/p110 γ PI3 kinase by immunoprecipitation and Western Blot analysis methods (see below). To purify PI3Kγ, 4 volumes of room temperature hypotonic lysis buffer (1 mM MgCl2, 1 mM DTT, 5 mM EGTA, 1 mM Pefabloc, 0.5 μM aprotinin, 5 μM leupeptin, 2 μM pepstatin, 5 μM E64, pH 8) per gram of cell paste, was poured onto frozen cell pellets with stirring, then lysed in a nitrogen “bomb” at 400 psi (599HC […], Parr Instrument Co, Moline, Ill.). NaCl was added to 150 mM, and sodium cholate was added to 1% and mixed for another 45 minutes. The lysates were clarified by centrifugation for 25 minutes at 14,000 rpm. The lysates were then loaded over anti-glu-linked Protein-G Sepaharose beads (Covance Research Products, Richmond, Calif.) using 20 mL resin/50 g cell paste. The column was washed with 15 volumes of wash buffer (1 mM DTT, 0.2 mM EGTA, 1 mM Pefabloc, 0.5 μM aprotinin, 5 μM leupeptin, 2 μM pepstatin, 5 μM E64, 150 mM NaCl, 1% sodium cholate, pH 8). PI3Kγ was eluted with 6 column volumes of wash buffer that contain 100 μg/mL of a peptide that competes for binding of the glu tag. The column fractions with the eluted protein (determined by taking OD280 readings) were collected and dialyzed in 0.2 mM EGTA, 1 mM DTT, 1 mM Pefabloc, 5 μM leupeptin, 0.5% sodium cholate, 150 mM NaCl, and 50% glycerol, pH 8. The fractions were stored at -80° C. until further use. Spodtera frugiperda cells were coinfected with baculovirus expressing a glu-tagged G protein β1 and baculovirus expressing a G protein β2, at a 1:1 ratio of glu-tagged G protein β1 baculovirus to G protein β2 baculovirus. Sf9 cells are grown in 10 L bioreactors and harvested 48-72 hours post infection. Samples of infected cells were tested for G protein β1/β2 expression by Western Blot analysis, as described below. Cell lysates were homogenized and loaded onto a column of glu-tagged beads as in Biological Example 1 and competed off the column with a glu peptide and processed as described in Biological Example 1. The inhibitory properties of the compounds in Table 1 were assayed in an in vitro PI3K assay. In a 96-well polypropylene plate, each well was spotted with 2 μL of 50 times the desired final concentration of compound in DMSO. Purified recombinant p101/p110 γ protein (0.03 μg; 2.7 nM) and G protein β1/γ2 subunits (0.09 μg; 57.7 nM) for each reaction was combined in the assay buffer (30 mM HEPES, 100 mM NaCl, 1 mM EGTA, and 1 mM DTT). ATP and [γ-^32P-ATP] (0.09 μCi) were added to this mixture so that the final ATP concentration in the reaction was 20 μM. Lipid micelles were formed by sonicating phosphatidylinositol-4,5-diphosphate (PIP2), phosphatidylethanolamine (PE), and Na-cholate in the assay buffer for 10 minutes, adding MgCl2 and incubating on ice for 20 minutes, for final concentrations of 25 μM PIP2, 300 μM PE, 0.02% Na-cholate, and 10 mM MgCl2 in the reaction. The reactions were started by adding equal volumes lipid and enzyme mixture in a total volume of 50 μL, allowed to run for 20 minutes at room temperature, and stopped with 100 μL 75 mM H3PO4. The lipid product was transferred to a glass fiber filter plate and washed with 75 mM H3PO4 several times. The presence of radioactive lipid product (PIP3) was measured by adding Wallac Optiphase mix to each well and counting in a Wallac 1450 Trilux plate reader (PerkinElmer Life Sciences Inc., Boston, Mass. 02118). The IC50 for each compound tested is reported in μM in Table 1: […]
# T1 sequence (P48736 whole entry, species assumed): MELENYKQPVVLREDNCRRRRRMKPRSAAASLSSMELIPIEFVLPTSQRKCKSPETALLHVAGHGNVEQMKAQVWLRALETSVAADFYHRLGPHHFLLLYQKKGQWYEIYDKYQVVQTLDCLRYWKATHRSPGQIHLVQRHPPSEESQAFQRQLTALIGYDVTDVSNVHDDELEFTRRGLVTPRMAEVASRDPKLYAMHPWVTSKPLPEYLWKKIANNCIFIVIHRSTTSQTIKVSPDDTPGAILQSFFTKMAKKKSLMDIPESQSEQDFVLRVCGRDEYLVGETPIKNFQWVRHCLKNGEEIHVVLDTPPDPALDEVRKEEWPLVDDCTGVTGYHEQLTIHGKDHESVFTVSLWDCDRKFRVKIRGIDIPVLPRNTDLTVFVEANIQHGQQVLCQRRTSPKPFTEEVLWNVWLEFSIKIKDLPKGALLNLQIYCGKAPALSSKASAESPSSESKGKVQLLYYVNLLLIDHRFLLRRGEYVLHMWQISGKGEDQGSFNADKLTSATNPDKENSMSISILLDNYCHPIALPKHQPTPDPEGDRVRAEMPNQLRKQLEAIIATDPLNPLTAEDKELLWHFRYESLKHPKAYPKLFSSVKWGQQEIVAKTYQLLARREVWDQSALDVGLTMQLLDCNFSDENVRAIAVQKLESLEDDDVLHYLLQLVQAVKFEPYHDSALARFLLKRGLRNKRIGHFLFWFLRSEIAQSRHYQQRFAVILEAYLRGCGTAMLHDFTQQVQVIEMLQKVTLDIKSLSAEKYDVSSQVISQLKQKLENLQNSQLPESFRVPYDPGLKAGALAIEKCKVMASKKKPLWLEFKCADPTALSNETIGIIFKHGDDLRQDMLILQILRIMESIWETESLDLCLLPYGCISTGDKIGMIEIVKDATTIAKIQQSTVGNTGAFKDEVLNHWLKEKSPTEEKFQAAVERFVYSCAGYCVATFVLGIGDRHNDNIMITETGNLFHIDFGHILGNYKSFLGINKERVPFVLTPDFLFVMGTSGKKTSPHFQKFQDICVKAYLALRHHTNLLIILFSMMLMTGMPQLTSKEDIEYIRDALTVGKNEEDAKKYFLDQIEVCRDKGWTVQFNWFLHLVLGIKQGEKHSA
# T1 sequence (Q8WYR1 whole entry partner, species assumed): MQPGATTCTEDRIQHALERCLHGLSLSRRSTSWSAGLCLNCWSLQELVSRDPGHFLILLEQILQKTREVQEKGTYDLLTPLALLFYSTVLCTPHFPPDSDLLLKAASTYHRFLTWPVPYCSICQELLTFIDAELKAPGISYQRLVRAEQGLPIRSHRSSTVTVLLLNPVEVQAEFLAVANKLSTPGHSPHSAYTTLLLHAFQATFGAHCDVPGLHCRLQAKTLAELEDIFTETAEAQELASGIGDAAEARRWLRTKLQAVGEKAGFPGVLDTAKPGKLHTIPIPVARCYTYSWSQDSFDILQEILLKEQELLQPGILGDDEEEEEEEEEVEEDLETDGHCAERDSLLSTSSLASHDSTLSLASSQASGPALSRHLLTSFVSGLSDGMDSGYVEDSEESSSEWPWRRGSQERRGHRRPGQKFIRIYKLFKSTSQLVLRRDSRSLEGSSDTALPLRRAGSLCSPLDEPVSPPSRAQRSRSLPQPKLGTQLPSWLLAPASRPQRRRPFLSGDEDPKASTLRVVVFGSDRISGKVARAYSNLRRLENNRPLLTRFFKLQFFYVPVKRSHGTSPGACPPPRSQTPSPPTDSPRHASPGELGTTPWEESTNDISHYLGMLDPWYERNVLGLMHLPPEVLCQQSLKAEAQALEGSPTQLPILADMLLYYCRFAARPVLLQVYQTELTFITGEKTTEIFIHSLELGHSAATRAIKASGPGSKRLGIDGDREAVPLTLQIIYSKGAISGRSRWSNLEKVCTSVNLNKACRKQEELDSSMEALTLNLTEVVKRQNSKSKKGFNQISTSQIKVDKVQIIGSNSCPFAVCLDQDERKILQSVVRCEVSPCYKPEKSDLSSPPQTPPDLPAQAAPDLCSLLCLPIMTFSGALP
row,pIC50,Molecule
1,6.99,"COc1cc2sc(C(=O)Nc3nnn[nH]3)c(OC3CC(C)CC(C)C3)c2cc1OC (centres unmarked) [Example 24, 3-(3,5-dimethyl-cyclohexyloxy)-5,6-dimethoxy-benzo[b]thiophene-2-carboxylic acid (2H-tetrazol-5-yl)-amide]"
2,6.43,"COc1cc2sc(C(=O)Nc3nnn[nH]3)c(OCCC3CC3)c2cc1OC [Example 19, 3-(2-Cyclopropyl-ethoxy)-5,6-dimethoxy-benzo[b]thiophene-2-carboxylic acid (1H-tetrazol-5-yl)-amide]"
3,7.47,"COc1cc2sc(C(=O)Nc3nn[nH]n3)c(OC3CCCCC3)c2cc1OC [Example 22, 3-Cyclohexyloxy-5,6-dimethoxy-benzo[b]thiophene-2-carboxylic acid (2H-tetrazol-5-yl)-amide]"
4,7.49,"3-(3,5-Dimethyl-cyclohexloxy)-5,6-dimethoxy-benzo[b]thiophene-2-carboxylic acid (1H-tetrazol-5-yl)-amide [Example 34]"
5,6.96,"COc1cc2sc(C(=O)Nc3nnn[nH]3)c(OC3CCC(C4CCCCC4)CC3)c2cc1OC (centres unmarked) [Example 30, 3-(Bicyclohexyl-4-yloxy)-5,6-dimethoxy-benzo[b]thiophene-2-carboxylic acid (1H-tetrazol-5-yl)-amide]"
6,6.34,"COc1cc2sc(C(=O)Nc3nn[nH]n3)c(OCC3CC3(Cl)Cl)c2cc1OC (centres unmarked) [Example 20, 3-(2,2-Dichloro-cyclopropylmethoxy)-5,6-dimethoxy-benzo[b]thiophene-2-carboxylic acid (2H-tetrazol-5-yl)-amide]"
7,7.43,"COc1cc2sc(C(=O)Nc3nnn[nH]3)c(OC3CCCCCC3)c2cc1OC [Example 39, 3-Cycloheptyloxy-5,6-dimethoxy-benzo[b]thiophene-2-carboxylic acid (1H-tetrazol-5-yl)-amide]"
8,8.52,"COc1cc2c(OC3CCCC(C)C3)c(C(=O)Nc3nn[nH]n3)sc2cc1C (single isomer, unassigned) [Example 7, 5-Methoxy-6-methyl-3-(3-methyl-cyclohexyloxy)-benzo[b]thiophene-2-carboxylic acid (2H-tetrazol-5-yl)-amide]"
9,6.77,"COc1cc2sc(C(=O)Nc3nnn[nH]3)c(OC3CC(C)CC(C)(C)C3)c2cc1OC (centres unmarked) [Example 48, 5,6-Dimethoxy-3-(3,3,5-trimethyl-cyclohexyloxy)-benzo[b]thiophene-2-carboxylic acid (1H-tetrazol-5-yl)-amide]"
10,5.59,"COc1cc2sc(C(=O)Nc3nnn[nH]3)c(OC3CCN(Cc4ccccc4)CC3)c2cc1OC [Example 49, 3-(1-Benzyl-piperidin-4-yloxy)-5,6-dimethoxy-benzo[b]thiophene-2-carboxylic acid (1H-tetrazol-5-yl)-amide]"
11,8.30,"COc1cc2c(OC3CCCCCC3)c(C(=O)Nc3nn[nH]n3)sc2cc1C [Example 8, 3-Cycloheptyloxy-5-methoxy-6-methyl-benzo[b]thiophene-2-carboxylic acid (2H-tetrazol-5-yl)-amide]"
12,7.28,"COc1cc2sc(C(=O)Nc3nnn[nH]3)c(OC3CCC(C)C(C)C3)c2cc1OC (centres unmarked) [Example 45, 3-(3,4-Dimethyl-cyclohexyloxy)-5,6-dimethoxy-benzo[b]thiophene-2-carboxylic acid (1H-tetrazol-5-yl)-amide]"
13,8.10,"COc1cc2c(OC3CCCC(C)(C)C3)c(C(=O)Nc3nn[nH]n3)sc2cc1C (centres unmarked) [Example 5, 3-(3,3-Dimethyl-cyclohexyloxy)-5-methoxy-6-methyl-benzo[b]thiophene-2-carboxylic acid (2H-tetrazol-5-yl)-amide]"
14,7.00,"COc1cc2sc(C(=O)Nc3nnn[nH]3)c(OC3CCCCC3C)c2cc1OC (centres unmarked) [Example 26, 5,6-Dimethoxy-3-(2-methyl-cyclohexyloxy)-benzo[b]thiophene-2-carboxylic acid (1H-tetrazol-5-yl)-amide]"
15,6.46,"COc1cc2sc(C(=O)Nc3nnn[nH]3)c(OCC3CC3)c2cc1OC [Example 35, 3-Cyclopropylmethoxy-5,6-dimethoxy-benzo[b]thiophene-2-carboxylic acid (1H-tetrazol-5-yl)-amide]"
16,7.62,"COc1cc2c(OC3CCN(C(=O)OC(C)(C)C)CC3)c(C(=O)Nc3nn[nH]n3)sc2cc1C [Example 17, 4-[5-Methoxy-6-methyl-2-(2H-tetrazol-5-ylcarbamoyl)-benzo[b]thiophene-3-yloxy]-piperidine-1-carboxylic acid tert-butyl ester]"
17,7.08,"COc1cc2sc(C(=O)Nc3nnn[nH]3)c(OC3CCOCC3)c2cc1OC [Example 41, 5,6-Dimethoxy-3-(tetrahydro-pyran-4-yloxy)-benzo[b]thiophene-2-carboxylic acid (1H-tetrazol-5-yl)-amide]"
18,7.52,"COc1cc2sc(C(=O)Nc3nnn[nH]3)c(OC3CC(C)CC(C)C3)c2cc1OC (centres unmarked) [Example 46, 3-(3,5-Dimethyl-cyclohexyloxy)-5,6-dimethoxy-benzo[b]thiophene-2-carboxylic acid (1H-tetrazol-5-yl)-amide]"
19,7.29,"COc1cc2sc(C(=O)Nc3nnn[nH]3)c(OCC3(C)CC3)c2cc1OC [Example 37, 5,6-Dimethoxy-3-(1-methyl-cyclopropylmethoxy)-benzo[b]thiophene-2-carboxylic acid (1H-tetrazol-5-yl)-amide]"
20,6.92,"COc1cc2sc(C(=O)Nc3nnn[nH]3)c(OC3CCCC3)c2cc1OC [Example 50, 3-Cyclopentyloxy-5,6-dimethoxy-benzo[b]thiophene-2-carboxylic acid (1H-tetrazol-5-yl)-amide]"
21,6.71,"COc1cc2sc(C(=O)Nc3nnn[nH]3)c(OCC3CCCCC3)c2cc1OC [Example 21, 3-Cyclohexylmethoxy-5,6-dimethoxy-benzo[b]thiophene-2-carboxylic acid (1H-tetrazol-5-yl)-amide]"
22,6.80,"CCC(Oc1c(C(=O)Nc2nnn[nH]2)sc2cc(OC)c(OC)cc12)C1CCCCC1 (centres unmarked) [Example 44, 3-(1-Cyclohexyl-propoxy)-5,6-dimethoxy-benzo[b]thiophene-2-carboxylic acid (1H-tetrazol-5-yl)-amide]"
23,7.62,"COc1cc2c(OC3CCOCC3)c(C(=O)Nc3nn[nH]n3)sc2cc1C [Example 1, 5-Methoxy-6-methyl-3-(tetrahydro-pyran-4-yloxy)-benzo[b]thiophene-2-carboxylic acid (2H-tetrazol-5-yl)-amide]"
